Assay results taken from patent US8666718B2, “Structure of the C-terminal region of the insulin receptor α-chain and of the insulin-like growth factor receptor α-chain” (The Walter and Eliza Hall Institute of Medical Research, priority 2009, dated 2014).
Read-outs that look alike come from different tables or passages of the source. Bridge positions count the residues as written; N and C are the ends. Ends that are not written are not given here. Peptide text beside a SMILES is read from it.

Columns and labels:
IGF-I = biological target: T1, IGF-I (Homo sapiens, UniProt P05019); assay: ITC titration of IGF-1R αCT peptide against IGF-I; type: binding; settings: 25° C.
T1 construct: purchased Novozymes GroPep (Australia)
T1 sequence (P05019 49-118 limits assumed): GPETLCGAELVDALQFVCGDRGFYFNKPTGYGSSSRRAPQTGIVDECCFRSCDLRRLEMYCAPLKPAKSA
Description: (§1) The IR485 construct of human IR was expressed in Lec8 mutant CHO cells and purified by gel filtration chromatography as described previously (Lou et al., 2006). IR485 consists of the first 485 residues of the mature human insulin receptor followed by the 16-residue sequence […] (SEQ ID NO: 10), which comprises a serine residue followed by an enterokinase cleavage site and a c-myc epitope tag. The c-myc tag was not removed for the ITC studies described here. IR485 was concentrated to 30 mg/ml in Tris-buffered saline (TBSA; 24.8 mM Tris-HCl (pH 8.0), 137 mM NaCl, 2.7 mM KCl and 0.02% sodium azide) using an Ultrafree centrifugal concentrator (Millipore, USA). […]
(§2) Peptides were prepared by dissolving in 10 mM HCl at ˜4 mg/ml concentration and then diluting with TBSA. […] All protein concentrations were determined by absorbance measurement at 280 nm using a NanoDrop 1000 spectrophotometer (Thermo Scientific, USA).
(§3) ITC experiments were performed using a VP-ITC isothermal titration calorimeter (MicroCal Inc., USA) with the calorimeter cell held at 25° C. […] Data were analyzed using the instrument's software incorporated within the Origin 7 software (OriginLab, USA) and in all cases fitted as a single-site interaction using the methodologies outlined in the instrument's manual.

[1] = biological target: T2, IR485 (first three N-terminal domains of the human insulin receptor) (Homo sapiens, UniProt P06213, I448T/Q492K/Y171H); assay: ITC titration of hormones, αCT peptides and insulin mimetic peptides against IR485; type: binding; settings: for ΔH^0 / −TΔS^0: sample IR485 alone, mean of three ± SEM
T2 construct: made in house; host or cells: Lec8 mutant CHO cells
T2 sequence (P06213 with tags, fused parts or gaps Y171H/I448T/Q492K): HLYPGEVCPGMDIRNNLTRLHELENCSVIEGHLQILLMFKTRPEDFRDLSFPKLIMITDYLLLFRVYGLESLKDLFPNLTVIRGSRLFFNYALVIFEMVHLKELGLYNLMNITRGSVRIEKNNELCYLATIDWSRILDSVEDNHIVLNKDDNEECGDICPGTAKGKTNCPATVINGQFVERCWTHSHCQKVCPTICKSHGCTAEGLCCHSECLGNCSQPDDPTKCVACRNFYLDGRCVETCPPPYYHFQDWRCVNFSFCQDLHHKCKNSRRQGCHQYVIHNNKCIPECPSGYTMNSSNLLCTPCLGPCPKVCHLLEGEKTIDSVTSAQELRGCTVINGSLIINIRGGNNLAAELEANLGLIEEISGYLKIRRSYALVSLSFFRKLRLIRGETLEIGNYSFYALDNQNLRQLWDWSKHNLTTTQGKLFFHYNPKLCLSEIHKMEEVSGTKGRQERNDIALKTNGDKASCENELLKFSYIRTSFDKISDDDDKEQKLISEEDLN
From the text: In order to study ligand binding to the first three domains of IR ectodomain, isothermal titration calorimetry (ITC) was used. ITC allowed a direct assay of the interactions between the IR ectodomain classical αCT peptide (residues 704-719; SEQ ID NO: 11) and IR485 (a construct consisting of the first three N-terminal domains of the IR; SEQ ID NO: 10), as well as the interaction between the analogous peptide of human IGF-1R and IR485. At the same time the thermodynamics of binding of the N- and C-terminal segments of the insulin mimetic peptide S519 (Schäffer et al., 2003) to IR485, as well as the binding of S519 itself to IR485 were examined. S519 ([…]; SEQ ID NO: 16) is a 36-residue peptide resulting from the affinity-optimization of two covalently-linked peptides, S371, a so-called “Site 1” peptide, and S446, a so-called “Site 2” peptide (Pillutla et al., 2002). […] Finally, the binding to IR485 of the IR αCT peptide carrying a F714A mutation (residues 704-719, […]; SEQ ID NO: 12) was examined.
The IR485 construct of human IR was expressed in Lec8 mutant CHO cells and purified by gel filtration chromatography as described previously (Lou et al., 2006). IR485 consists of the first 485 residues of the mature human insulin receptor followed by the 16-residue sequence […] (SEQ ID NO: 10), which comprises a serine residue followed by an enterokinase cleavage site and a c-myc epitope tag. The c-myc tag was not removed for the ITC studies described here. IR485 was concentrated to 30 mg/ml in Tris-buffered saline (TBSA; 24.8 mM Tris-HCl (pH 8.0), 137 mM NaCl, 2.7 mM KCl and 0.02% sodium azide) using an Ultrafree centrifugal concentrator (Millipore, USA). Porcine insulin (Sigma-Aldrich, USA) was prepared in a zinc-free-form (termed ZFP-insulin) by extensive dialysis against 0.1% (v/v) acetic acid followed by lyophilization. Human IGF-I was obtained from Novozymes GroPep (Australia) as “receptor grade” material.
The IR classical αCT peptide (residues 704-719, […]; SEQ ID NO: 11), the IGF-1R classical αCT peptide (residues 691-706, […]; SEQ ID NO: 14) as well as the F714A mutant of IR αCT (denoted IR αCT.714A; SEQ ID NO: 12) were obtained from Genscript Corporation (USA) at the >98% level of purity. The S519N20 peptide ([…]; SEQ ID NO: 17) and the S519C16 peptide ([…]; SEQ ID NO: 18) were obtained from AusPep (Australia) at the >90% level of purity. The S519 peptide ([…]; SEQ ID NO: 16) was obtained from Activotec (UK) at the >85% purity. Peptides were prepared by dissolving in 10 mM HCl at ˜4 mg/ml concentration and then diluting with TBSA. Oxidation of peptides S519N20 and S519 (which contain two cysteine residues) was carried out by incubating the respective peptide (prepared at 1 mg/ml in 50 mM ammonium bicarbonate adjusted to pH 8.5 with ammonia solution) in the dark at room temperature for 2 days and then lyophilizing before use. Oxidation was complete as determined by analysis with Ellman's reagent (5,5′-dithiobis-2-nitrobenzoate). All protein concentrations were determined by absorbance measurement at 280 nm using a NanoDrop 1000 spectrophotometer (Thermo Scientific, USA).
ITC experiments were performed using a VP-ITC isothermal titration calorimeter (MicroCal Inc., USA) with the calorimeter cell held at 25° C. All samples were degassed prior to injection or placement into the cell, and the instrument was temperature equilibrated prior to the start of the injections. In all experiments the volume of sample placed in the cell was 1.4 ml and the titrant was injected in 7 μl volumes over 14 s at 3 min intervals, with the total number of injections being 40. The sample contents were stirred at a speed of 310 rpm over the duration of the titration. All titrants (i.e. ZFP-insulin, IGF-I, IR αCT peptide, IGF-1R αCT peptide, IR αCT.714A peptide, S519, S519N20, and […]) were first injected into a solution of TBSA alone in order ascertain the heat of dilution, which was then subtracted from the data of interest as appropriate. […]

human IR = human IR (Homo sapiens, UniProt P06213); settings: Schäffer et al., 2003; cited from earlier work
Chain of human IR (P06213 28-758 limits assumed): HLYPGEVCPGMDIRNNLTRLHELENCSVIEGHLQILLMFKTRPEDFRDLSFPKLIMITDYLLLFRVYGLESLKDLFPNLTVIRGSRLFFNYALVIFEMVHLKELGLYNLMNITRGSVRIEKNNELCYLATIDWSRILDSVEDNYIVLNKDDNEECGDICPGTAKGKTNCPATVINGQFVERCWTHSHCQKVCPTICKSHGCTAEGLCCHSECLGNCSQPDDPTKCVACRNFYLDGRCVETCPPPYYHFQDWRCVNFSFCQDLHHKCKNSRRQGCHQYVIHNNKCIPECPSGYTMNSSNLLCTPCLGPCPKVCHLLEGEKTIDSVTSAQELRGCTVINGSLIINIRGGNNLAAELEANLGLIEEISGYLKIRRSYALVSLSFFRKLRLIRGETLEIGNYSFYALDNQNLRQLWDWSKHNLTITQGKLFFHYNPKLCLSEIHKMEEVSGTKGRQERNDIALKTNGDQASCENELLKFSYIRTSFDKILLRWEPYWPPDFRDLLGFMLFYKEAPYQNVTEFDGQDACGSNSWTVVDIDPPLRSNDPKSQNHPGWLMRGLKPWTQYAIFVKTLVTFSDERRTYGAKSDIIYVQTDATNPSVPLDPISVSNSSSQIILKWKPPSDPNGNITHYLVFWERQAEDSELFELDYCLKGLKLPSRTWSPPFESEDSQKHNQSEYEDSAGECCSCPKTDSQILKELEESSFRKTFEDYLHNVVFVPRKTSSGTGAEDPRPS
Chain of human IR (P06213 763-1382 partner limits assumed): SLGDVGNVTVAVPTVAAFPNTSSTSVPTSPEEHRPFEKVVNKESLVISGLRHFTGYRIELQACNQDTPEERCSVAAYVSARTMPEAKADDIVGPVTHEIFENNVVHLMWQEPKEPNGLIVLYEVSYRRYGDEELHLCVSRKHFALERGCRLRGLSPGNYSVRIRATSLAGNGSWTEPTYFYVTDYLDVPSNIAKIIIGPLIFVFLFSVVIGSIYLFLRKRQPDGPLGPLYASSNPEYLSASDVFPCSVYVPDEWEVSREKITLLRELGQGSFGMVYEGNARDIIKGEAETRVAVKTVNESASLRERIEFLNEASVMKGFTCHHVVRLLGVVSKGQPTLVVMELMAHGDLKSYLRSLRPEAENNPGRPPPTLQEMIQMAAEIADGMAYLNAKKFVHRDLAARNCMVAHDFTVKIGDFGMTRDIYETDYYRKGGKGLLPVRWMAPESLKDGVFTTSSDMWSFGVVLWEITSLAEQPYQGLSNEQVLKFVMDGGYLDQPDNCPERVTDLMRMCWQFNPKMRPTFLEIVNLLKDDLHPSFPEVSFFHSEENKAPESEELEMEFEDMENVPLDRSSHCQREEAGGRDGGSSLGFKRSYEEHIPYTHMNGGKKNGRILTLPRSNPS

ZFP-insulin = biological target: T3, ZFP-insulin (Sus scrofa, UniProt P01315); assay: ITC titration of IR αCT peptide against ZFP-insulin; type: binding, Porcine; settings: 25° C.
T3 construct: purchased Sigma-Aldrich
T3 sequence (P01315 25-54 limits assumed): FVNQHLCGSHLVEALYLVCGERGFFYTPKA
T3 sequence (P01315 88-108 limits assumed): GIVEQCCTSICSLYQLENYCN
Description: as §1, §2, §3

[2] = biological target: T4, IR485 pre-complexed with a 10-fold molar ratio of IR classical αCT peptide (Homo sapiens, UniProt P06213, I448T/Q492K/Y171H); assay: ITC titration against IR485 pre-complexed with a 10-fold molar ratio of IR αCT peptide; type: binding; settings: 25° C., IR485 + 10 × IR-αCT, mean of three ± SEM
T4 construct: host or cells: Lec8 mutant CHO cells (IR485)
T4 sequence (P06213 with tags, fused parts or gaps Y171H/I448T/Q492K limits assumed, other chains not shown): as the sequence (P06213 with tags, fused parts or gaps Y171H/I448T/Q492K) above
Description: The IR485 construct of human IR was expressed in Lec8 mutant CHO cells and purified by gel filtration chromatography as described previously (Lou et al., 2006). IR485 consists of the first 485 residues of the mature human insulin receptor followed by the 16-residue sequence […] (SEQ ID NO: 10), which comprises a serine residue followed by an enterokinase cleavage site and a c-myc epitope tag. The c-myc tag was not removed for the ITC studies described here. IR485 was concentrated to 30 mg/ml in Tris-buffered saline (TBSA; 24.8 mM Tris-HCl (pH 8.0), 137 mM NaCl, 2.7 mM KCl and 0.02% sodium azide) using an Ultrafree centrifugal concentrator (Millipore, USA). Porcine insulin (Sigma-Aldrich, USA) was prepared in a zinc-free-form (termed ZFP-insulin) by extensive dialysis against 0.1% (v/v) acetic acid followed by lyophilization.
Peptides were prepared by dissolving in 10 mM HCl at ˜4 mg/ml concentration and then diluting with TBSA. Oxidation of peptides S519N20 and S519 (which contain two cysteine residues) was carried out by incubating the respective peptide (prepared at 1 mg/ml in 50 mM ammonium bicarbonate adjusted to pH 8.5 with ammonia solution) in the dark at room temperature for 2 days and then lyophilizing before use. […] All protein concentrations were determined by absorbance measurement at 280 nm using a NanoDrop 1000 spectrophotometer (Thermo Scientific, USA).
ITC experiments were performed using a VP-ITC isothermal titration calorimeter (MicroCal Inc., USA) with the calorimeter cell held at 25° C. All samples were degassed prior to injection or placement into the cell, and the instrument was temperature equilibrated prior to the start of the injections. In all experiments the volume of sample placed in the cell was 1.4 ml and the titrant was injected in 7 μl volumes over 14 s at 3 min intervals, with the total number of injections being 40. […] Data were analyzed using the instrument's software incorporated within the Origin 7 software (OriginLab, USA) and in all cases fitted as a single-site interaction using the methodologies outlined in the instrument's manual.

[3] = biological target: T5, IR485 pre-complexed with a 10-fold molar ratio of IGF-1R classical αCT peptide (Homo sapiens, UniProt P06213+P08069, I448T/Q492K/Y171H); assay: ITC titration against IR485 pre-complexed with a 10-fold molar ratio of IGF-1R αCT peptide; type: binding; settings: 25° C., IR485 + 10 × IGF1R-αCT, mean of three ± SEM
T5 construct: host or cells: Lec8 mutant CHO cells (IR485)
T5 sequence (P06213 with tags, fused parts or gaps Y171H/I448T/Q492K limits assumed, other chains not shown): as the sequence (P06213 with tags, fused parts or gaps Y171H/I448T/Q492K) above
Description: as §1, §2, §3

VFENFLHNSIFVPRPE [IGF1R-αCT]
Kd (IGF-I; interaction with IGF-I, read-out: Kd (estimated, weaker than)): > 1000 µM
Kd (IGF-I; sample IGF-I (printed IGF-IR) 20 μM, titrant 200 μM, read-out: Kd): > 1000 µM
Kd [1]: 17.6 ± 2.1 µM

CC(C)C[C@H](NC(=O)[C@@H](N)CO)C(=O)N[C@@H](CCC(=O)O)C(=O)N[C@@H](CCC(=O)O)C(=O)N[C@@H](CCC(=O)O)C(=O)N[C@@H](Cc1c[nH]c2ccccc12)C(=O)N[C@@H](C)C(=O)N[C@@H](CCC(N)=O)C(=O)N[C@H](C(=O)N[C@@H](CCC(=O)O)C(=O)N[C@H]1CSSC[C@@H](C(=O)N2CCC[C@H]2C(=O)N[C@@H](CO)C(=O)O)NC(=O)CNC(=O)[C@H](CCCNC(=N)N)NC(=O)CNC(=O)[C@H](Cc2ccc(O)cc2)NC(=O)[C@H](C(C)C)NC(=O)[C@H](CCC(=O)O)NC1=O)C(C)C [S519N20] (H-SLEEEWAQVECEVYGRGCPS-OH; disulfide 11-18)
Kd [1]: > 1000 µM

CC(C)C[C@H](NC(=O)[C@H](CCC(N)=O)NC(=O)[C@H](CCCNC(=N)N)NC(=O)[C@H](CCC(=O)O)NC(=O)[C@H](Cc1ccccc1)NC(=O)[C@H](Cc1c[nH]c2ccccc12)NC(=O)[C@H](CC(=O)O)NC(=O)[C@H](Cc1ccc(O)cc1)NC(=O)[C@H](Cc1ccccc1)NC(=O)[C@H](CO)NC(=O)[C@H](CCC(=O)O)NC(=O)[C@H](CC(=O)O)NC(=O)[C@H](CC(C)C)NC(=O)[C@H](CO)NC(=O)CNC(=O)[C@H](CO)NC(=O)[C@@H]1CCCN1C(=O)[C@@H]1CSSC[C@H](NC(=O)[C@H](CCC(=O)O)NC(=O)[C@@H](NC(=O)[C@H](CCC(N)=O)NC(=O)[C@H](C)NC(=O)[C@H](Cc2c[nH]c3ccccc23)NC(=O)[C@H](CCC(=O)O)NC(=O)[C@H](CCC(=O)O)NC(=O)[C@H](CCC(=O)O)NC(=O)[C@H](CC(C)C)NC(=O)[C@@H](N)CO)C(C)C)C(=O)N[C@@H](CCC(=O)O)C(=O)N[C@@H](C(C)C)C(=O)N[C@@H](Cc2ccc(O)cc2)C(=O)NCC(=O)N[C@@H](CCCNC(=N)N)C(=O)NCC(=O)N1)C(=O)NCC(=O)O [S519] (H-SLEEEWAQVECEVYGRGCPSGSLDESFYDWFERQLG-OH; disulfide 11-18; N-terminus and C-terminus assumed)
Kd [1]: 0.011 ± 0.003 µM
ΔH^0 ([1]; ITC, 25° C.): -16.5 ± 1.4 kcal/mol
−TΔS^0 ([1]; ITC, 25° C.): 5.74 ± 1.4 kcal/mol
Kd (human IR): 0.02 nM

TFEDYLHNVVFVPRPS [IR-αCT]
Kd (ZFP-insulin; interaction with ZFP-insulin, read-out: Kd (estimated, weaker than)): > 1000 µM
Kd (ZFP-insulin; sample ZFP-insulin 20 μM, titrant 200 μM, read-out: Kd): > 1000 µM
Kd [1]: 3.9 ± 1.1 µM

CC(C)C[C@H](NC(=O)[C@H](CCC(N)=O)NC(=O)[C@H](CCCNC(=N)N)NC(=O)[C@H](CCC(=O)O)NC(=O)[C@H](Cc1ccccc1)NC(=O)[C@H](Cc1c[nH]c2ccccc12)NC(=O)[C@H](CC(=O)O)NC(=O)[C@H](Cc1ccc(O)cc1)NC(=O)[C@H](Cc1ccccc1)NC(=O)[C@H](CO)NC(=O)[C@H](CCC(=O)O)NC(=O)[C@H](CC(=O)O)NC(=O)[C@H](CC(C)C)NC(=O)[C@H](CO)NC(=O)CN)C(=O)NCC(=O)O [S519C16]
ΔH^0 [2]: -7.89 ± 0.48 kcal/mol
−TΔS^0 [2]: -2.63 ± 0.72 kcal/mol
Kd [1]: 0.0026 ± 0.0007 µM
ΔH^0 ([1]; ITC, 25° C.): -14.6 ± 0.96 kcal/mol
−TΔS^0 ([1]; ITC, 25° C.): 2.87 ± 0.96 kcal/mol

TFEDYLHNVVAVPRPS [IR-αCT.714A]
Kd [1]: 6.5 ± 1.7 µM

ZFP-insulin: Porcine insulin (Sigma-Aldrich) prepared in a zinc-free form by dialysis against acetic acid and lyophilization
Kd [2]: 0.017 ± 0.004 µM
Kd [3]: 0.0057 ± 0.0011 µM
Kd ([1]; ITC, 25° C., TBSA, sample IR485, mean of three experiments ± SEM, single-site model, read-out: Kd): > 1000 µM
